{"source": "patent US7320984B2", "about": "“Remedies or preventives for urinary frequency or urinary incontinence and morphinan derivatives having nitrogen-containing heterocyclic group” (Toray Industries, Inc., priority 2002, dated 2008)", "data": [{"system": "rhythmic bladder contractions in rats", "experiment": "Inhibitory effect against rhythmic bladder contractions in rats", "format": "in vivo", "conditions": "anesthetized female SD rats, intravenous, dose 0.005 mg/kg body weight", "description": "(§1) Inhibitory Effect Against Rhythmic Bladder Contractions in Rats\n(§2) Female SD rats were anesthetized with an intraperitoneal administration of urethane (1.0 g/kg). A polyethylene tube was inserted from the urethra to the bladder and the tube was fixed by ligation. Then physiological saline was appropriately infused (infusion rate: about 0.2 ml/min., maximum: about 1.5 ml/animal) through the tube to cause rhythmic bladder contractions. The rhythmic bladder contractions were monitored by measuring the intravesical pressure through a polyethylene tube inserted into the bladder. After confirming that stable rhythmic bladder contractions occurred at least 10 times, a vehicle containing a prescribed dose of a test compound was intravenously administration at a dose of 1 ml/kg. In cases where the intravesical pressure, within 10 minutes after the administration of the test compound, decreased to 50% or less of the intravesical pressure immediately […] the administration, the test compound was judged as having inhibitory effect against urinary bladder contractions, and the time period until the intravesical pressure returned to more than 50% was defined as inhibitory time of rhythmic bladder contractions. As the vehicle for administration, physiological saline was used for test compounds 4, 7, 8, 9, 10, 13, 29, 30, 31, 33, 34, 75, 76, 79, 80, 81, 82, 84, 89, 90, 91, 93, 94, 95, 110 and 111, aqueous 10% dimethylsulfoxide (DMSO) solution was used for test compounds 11, 12, 14, 15, 16, 17, 18, 20, 21, 23, 28, 46, 47, 50, 55, 56, 57, 58, 59, 60, 61, 62, 63, 64, 65, 66, 68, 69, 70, 71, 72, 73, 74, 77, 78, 83, 85, 86, 87, 88, 92, 96, 97, 98, 99, 100, […], 103, 104, 105, 106, 107, 108 and […], aqueous 20% dimethylsulfoxide (DMSO) solution was used for test compounds 1, 2, 67 and 101, and aqueous 5% xylitol solution was used for test compounds 5 and 35. The aqueous 10% DMSO solution, aqueous 20% DMSO solution and the aqueous 5% xylitol solution per se, which may influence on the inhibitory time of rhythmic bladder contractions, were also tested at a dose of 1 ml/kg. With any of the compounds, prolongation of the inhibitory time of rhythmic bladder contractions was observed when compared with that obtained in the group to which the vehicle alone was administered.", "units": {"Mean Inhibitory Time of Rhythmic Bladder Contractions": "min"}, "values": [{"smiles": "O=C1c2cccc(F)c2C(=O)N1[C@@H]1CC[C@@]2(O)[C@H]3Cc4ccc(O)c5c4[C@@]2(CCN3CC2CC2)[C@H]1O5", "note": "[Compound 17, N-(17-cyclopropylmethyl-4,5α-epoxy-3,14-dihydroxy-morphinan-6β-yl)-3-fluorophthalimide]", "Mean Inhibitory Time of Rhythmic Bladder Contractions": 13.2}, {"smiles": "O=C1c2ccc(F)cc2C(=O)N1[C@@H]1CC[C@@]2(O)[C@H]3Cc4ccc(O)c5c4[C@@]2(CCN3CC2CC2)[C@H]1O5", "note": "[Compound 16, N-(17-cyclopropylmethyl-4,5α-epoxy-3,14-dihydroxy-morphinan-6β-yl)-4-fluorophthalimide]", "Mean Inhibitory Time of Rhythmic Bladder Contractions": 14.8}]}, {"system": "rhythmic bladder contractions in rats", "experiment": "Inhibitory effect against rhythmic bladder contractions in rats", "format": "in vivo", "conditions": "anesthetized female SD rats, intravenous, dose 0.01 mg/kg body weight", "description": "as §1, §2", "units": {"Mean Inhibitory Time of Rhythmic Bladder Contractions": "min"}, "values": [{"smiles": "O=C1C2=C(CCCC2)C(=O)N1[C@@H]1CC[C@@]2(O)[C@H]3Cc4ccc(O)c5c4[C@@]2(CCN3CC2CC2)[C@H]1O5", "note": "[Compound 77, N-(17-cyclopropylmethyl-4,5α-epoxy-3,14-dihydroxy-morphinan-6β-yl)-3,4,5,6-tetrahydrophthalimide]", "Mean Inhibitory Time of Rhythmic Bladder Contractions": 16.6}, {"smiles": "O=C1c2ccc(Cl)cc2C(=O)N1[C@@H]1CC[C@@]2(O)[C@H]3Cc4ccc(O)c5c4[C@@]2(CCN3CC2CC2)[C@H]1O5", "note": "[Compound 15, N-(17-cyclopropylmethyl-4,5α-epoxy-3,14-dihydroxy-morphinan-6β-yl)-4-chlorophthalimide]", "Mean Inhibitory Time of Rhythmic Bladder Contractions": 12.2}]}, {"system": "rhythmic bladder contractions in rats", "experiment": "Inhibitory effect against rhythmic bladder contractions in rats", "format": "in vivo", "conditions": "anesthetized female SD rats, intravenous, dose 0.03 mg/kg body weight", "description": "as §1, §2", "units": {"Mean Inhibitory Time of Rhythmic Bladder Contractions": "min"}, "values": [{"smiles": "C=CCN1CC[C@]23c4c5ccc(O)c4O[C@H]2[C@H](N2C(=O)c4ccccc4C2=O)CC[C@@]3(O)[C@H]1C5", "note": "[Compound 13, N-(17-allyl-4,5α-epoxy-3,14-dihydroxy-morphinan-6β-yl)-phthalimide]", "Mean Inhibitory Time of Rhythmic Bladder Contractions": 11.7}, {"smiles": "C=CCN1CC[C@]23c4c5ccc(O)c4O[C@H]2[C@@H](N2C(=O)c4cccc(C)c4C2=O)CC[C@@]3(O)[C@H]1C5", "note": "[Compound 61, N-(17-allyl-4,5α-epoxy-3,14-dihydroxymorphinan-6α-yl)-3-methylphthalimide]", "Mean Inhibitory Time of Rhythmic Bladder Contractions": 22.6}, {"smiles": "O=C1c2cc(F)ccc2CN1[C@@H]1CC[C@@]2(O)[C@H]3Cc4ccc(O)c5c4[C@@]2(CCN3CC2CC2)[C@H]1O5", "note": "[Compound 82, 2-(17-cyclopropylmethyl-4,5α-epoxy-3,14-dihydroxy-morphinan-6β-yl)-6-fluoro-2,3-dihydro-isoindol-1-one]", "Mean Inhibitory Time of Rhythmic Bladder Contractions": 19.9}, {"smiles": "O=C1c2cccc(F)c2CN1[C@@H]1CC[C@@]2(O)[C@H]3Cc4ccc(O)c5c4[C@@]2(CCN3CC2CC2)[C@H]1O5", "note": "[Compound 81, 2-(17-cyclopropylmethyl-4,5α-epoxy-3,14-dihydroxy-morphinan-6β-yl)-4-fluoro-2,3-dihydro-isoindol-1-one]", "Mean Inhibitory Time of Rhythmic Bladder Contractions": 16.1}, {"smiles": "C=CCN1CC[C@]23c4c5ccc(O)c4O[C@H]2[C@H](N2C(=O)C4=C(CCCC4)C2=O)CC[C@@]3(O)[C@H]1C5", "note": "[Compound 73, N-(17-allyl-4,5α-epoxy-3,14-dihydroxymorphinan-6β-yl)-3,4,5,6-tetrahydrophthalimide]", "Mean Inhibitory Time of Rhythmic Bladder Contractions": 13.4}]}, {"system": "rhythmic bladder contractions in rats", "experiment": "Inhibitory effect against rhythmic bladder contractions in rats", "format": "in vivo", "conditions": "anesthetized female SD rats, intravenous, dose 0.1 mg/kg body weight", "description": "as §1, §2", "units": {"Mean Inhibitory Time of Rhythmic Bladder Contractions": "min"}, "values": [{"smiles": "Nc1cccc2c1C(=O)N([C@@H]1CC[C@@]3(O)[C@H]4Cc5ccc(O)c6c5[C@@]3(CCN4CC3CC3)[C@H]1O6)C2=O", "note": "[Compound 97, N-(17-cyclopropylmethyl-4,5α-epoxy-3,14-dihydroxy-morphinan-6β-yl)-3-amino-phthalimide]", "Mean Inhibitory Time of Rhythmic Bladder Contractions": 11.2}, {"smiles": "CC1=C(C)C(=O)N([C@@H]2CC[C@@]3(O)[C@H]4Cc5ccc(O)c6c5[C@@]3(CCN4CC3CC3)[C@H]2O6)C1=O", "note": "[Compound 75, N-(17-cyclopropylmethyl-4,5α-epoxy-3,14-dihydroxy-morphinan-6β-yl)-2,3-dimethyl-maleimide]", "Mean Inhibitory Time of Rhythmic Bladder Contractions": 20.2}, {"smiles": "C=CCN1CC[C@]23c4c5ccc(O)c4O[C@H]2[C@H](N2C(=O)c4ccccc4S2(=O)=O)CC[C@@]3(O)[C@H]1C5", "note": "[Compound 109, N-(17-allyl-4,5α-epoxy-3,14-dihydroxy-morphinan-6β-yl)-O-sulfonebenzimide]", "Mean Inhibitory Time of Rhythmic Bladder Contractions": 18.1}, {"smiles": "C=CCN1CC[C@]23c4c5ccc(O)c4O[C@H]2[C@H](N2Cc4ccc(F)cc4C2=O)CC[C@@]3(O)[C@H]1C5", "note": "[Compound 90, 2-(17-allyl-4,5α-epoxy-3,14-dihydroxy-morphinan-6β-yl)-6-fluoro-2,3-dihydro-isoindol-1-one]", "Mean Inhibitory Time of Rhythmic Bladder Contractions": 17.6}, {"smiles": "O=c1c2ccccc2[nH]n1[C@@H]1CC[C@@]2(O)[C@H]3Cc4ccc(O)c5c4[C@@]2(CCN3CC2CC2)[C@H]1O5", "note": "[Compound 103, 2-(17-cyclopropylmethyl-4,5α-epoxy-3,14-dihydroxy-morphinan-6β-yl)-1,2-dihydro-indazol-3-one]", "Mean Inhibitory Time of Rhythmic Bladder Contractions": 13.1}, {"smiles": "CN1CC[C@]23c4c5ccc(O)c4O[C@H]2[C@H](N2C(=O)c4ccccc4C2=O)CC[C@H]3[C@H]1C5", "note": "[Compound 95, N-(4,5α-epoxy-3-hydroxy-17-methyl-morphinan-6β-yl)-phthalimide]", "Mean Inhibitory Time of Rhythmic Bladder Contractions": 15.0}]}, {"system": "rhythmic bladder contractions in rats", "experiment": "Inhibitory effect against rhythmic bladder contractions in rats", "format": "in vivo", "conditions": "anesthetized female SD rats, intravenous, dose 0.3 mg/kg body weight", "description": "as §1, §2", "units": {"Mean Inhibitory Time of Rhythmic Bladder Contractions": "min"}, "values": [{"smiles": "CN1C(=O)CN([C@@H]2CC[C@@]3(O)[C@H]4Cc5ccc(O)c6c5[C@@]3(CCN4C)[C@H]2O6)c2ccccc21", "note": "[Compound 8, 4-(4,5α-epoxy-3,14-dihydroxy-17-methyl-morphinan-6β-yl)-1-methyl-3,4-dihydro-1H-quinoxalino-2-one]", "Mean Inhibitory Time of Rhythmic Bladder Contractions": 6.8}, {"smiles": "O=C1c2ccccc2CN1[C@@H]1CC[C@@]2(O)[C@H]3Cc4ccc(O)c5c4[C@@]2(CCN3CC2CC2)[C@H]1O5", "note": "[Compound 28, 2-(17-cyclopropylmethyl-4,5α-epoxy-3,14-dihydroxy-morphinan-6β-yl)-2,3-dihydro-isoisoindol-1-one]", "Mean Inhibitory Time of Rhythmic Bladder Contractions": 19.6}, {"smiles": "O=C1C(Cc2ccccc2)CCN1[C@H]1CC[C@@]2(O)[C@H]3Cc4ccc(O)c5c4[C@@]2(CCN3CC2CC2)[C@H]1O5", "note": "(stereo partly drawn) [Compound 35, 1-(17-cyclopropylmethyl-4,5α-epoxy-3,14-dihydroxy-morphinan-6α-yl)-3-benzyl-pyrrolidin-2-one]", "Mean Inhibitory Time of Rhythmic Bladder Contractions": 29.9}]}, {"system": "rhythmic bladder contractions in rats", "experiment": "Inhibitory effect against rhythmic bladder contractions in rats", "format": "in vivo", "conditions": "anesthetized female SD rats, intravenous, dose 1.0 mg/kg body weight", "description": "as §1, §2", "units": {"Mean Inhibitory Time of Rhythmic Bladder Contractions": "min"}, "values": [{"smiles": "Oc1ccc2c3c1O[C@H]1[C@H](N4CCCC4)CC[C@@]4(O)[C@@H](C2)N(CC2CC2)CC[C@]314", "note": "[Compound 111, 17-cyclopropylmethyl-4,5α-epoxy-6β-(pyrrolidin-1-yl)-morphinan-3,14-diol]", "Mean Inhibitory Time of Rhythmic Bladder Contractions": 2.8}, {"smiles": "O=C1CCCN1[C@H]1CC[C@@]2(O)[C@H]3Cc4ccc(O)c5c4[C@@]2(CCN3CC2CC2)[C@H]1O5", "note": "[Compound 34, 1-(17-cyclopropylmethyl-4,5α-epoxy-3,14-dihydroxy-morphinan-6α-yl)-pyrrolidin-2-one]", "Mean Inhibitory Time of Rhythmic Bladder Contractions": 9.2}, {"smiles": "CCN(CC)C(=O)[C@@H]1CCCN1[C@@H]1CC[C@@]2(O)[C@H]3Cc4ccc(O)c5c4[C@@]2(CCN3C)[C@H]1O5", "note": "[Compound 29, 1-(4,5α-epoxy-3,14-dihydroxy-17-methyl-morphinan-6β-yl)-pyrrolidin-(2S)-carboxyl diethylamide]", "Mean Inhibitory Time of Rhythmic Bladder Contractions": 0.8}, {"smiles": "O=C1CCCN1[C@@H]1CC[C@@]2(O)[C@H]3Cc4ccc(O)c5c4[C@@]2(CCN3CC2CC2)[C@H]1O5", "note": "[Compound 46, 1-(17-cyclopropylmethyl-4,5α-epoxy-3,14-dihydroxy-morphinan-6β-yl)-pyrrolidin-2-one]", "Mean Inhibitory Time of Rhythmic Bladder Contractions": 20.0}, {"smiles": "O=C1CCC(=O)N1[C@@H]1CC[C@@]2(O)[C@H]3Cc4ccc(O)c5c4[C@@]2(CCN3CC2CC2)[C@H]1O5", "note": "[Compound 20, N-(17-cyclopropylmethyl-4,5α-epoxy-3,14-dihydroxy-morphinan-6β-yl)-succinimide]", "Mean Inhibitory Time of Rhythmic Bladder Contractions": 18.1}, {"smiles": "CCN(CC)C(=O)[C@@H]1CCCN1[C@H]1CC[C@H]2[C@H]3Cc4ccc(O)c5c4[C@@]2(CCN3C)[C@H]1O5", "note": "[Compound 31, 1-(4,5α-epoxy-3-hydroxy-17-methyl-morphinan-6α-yl)-pyrrolidin-(2S)-carboxyl diethylamide]", "Mean Inhibitory Time of Rhythmic Bladder Contractions": 1.0}]}, {"system": "rhythmic bladder contractions in rats", "experiment": "Inhibitory effect against rhythmic bladder contractions in rats", "format": "in vivo", "conditions": "anesthetized female SD rats, intravenous, dose 3.0 mg/kg body weight", "description": "as §1, §2", "units": {"Mean Inhibitory Time of Rhythmic Bladder Contractions": "min"}, "values": [{"smiles": "CCN(CC)C(=O)C1CCCN([C@@H]2CC[C@@]3(O)[C@H]4Cc5ccc(O)c6c5[C@@]3(CCN4C)[C@H]2O6)C1", "note": "(stereo partly drawn) [Compound 33, 1-(4,5α-epoxy-3,14-dihydroxy-17-methyl-3-morphinan-6β-yl)-piperidin-3-carboxyl diethylamide]", "Mean Inhibitory Time of Rhythmic Bladder Contractions": 2.1}, {"smiles": "CCN(CC)C(=O)[C@H]1CCCN1[C@@H]1CC[C@@]2(O)[C@H]3Cc4ccc(O)c5c4[C@@]2(CCN3C)[C@H]1O5", "note": "[Compound 30, 1-(4,5α-epoxy-3,14-dihydroxy-17-methyl-morphinan-6β-yl)-pyrrolidin-(2R)-carboxyl diethylamide]", "Mean Inhibitory Time of Rhythmic Bladder Contractions": 2.3}]}]}
